Measured values as given in patent US11271237B2, “Organic redox molecules for flow batteries” (UCHICAGO ARGONNE, LLC, priority 2019, dated 2022).
≈ marks a conversion by molar mass, not a printed value.

Experiments:
[1] = in a carbonate-based electrolyte; cited from earlier work
[2] = Viscosity measurement with RHEOSENSE microfluidic MEMS viscometer; format: physicochemical; settings: neat liquid, 23.4° C., shear rates 500-5000 s^−1 (EG1, EG2) or 100-4000 s^−1 (EG3)
Procedure: The viscosities of liquid TEMPO derivatives were determined at 23.4° C. using a RHEOSENSE microfluidic and micro-electro-mechanical-systems (MEMS) viscometer. The RHEOSENSE viscometer is based on the viscometer-rheometer-on-a-chip (VROC) technology. For TEMPO-EG1 and EG2, shear rates were swept from 500 s^−1 to 5000 s^−1, while the viscosity of TEMPO-EG3 was measured from 100 s^−1 to 4000 s^−1. […] Longer glycol ether chains lead to increases in viscosity, but the impact differs drastically.

[3] = Cyclic voltammetry in non-aqueous carbonate electrolyte; format: physicochemical; settings: 10 mM in 1.5 M LiPF6 in EC/EMC 3:7 (v/v); glassy carbon working electrode, lithium metal counter and reference; iR-correction
Procedure: (§1) FIG. 3 provides cyclic voltammograms of 10 mM 4-(1,4-dioxabutyl)-2,2,6,6-tetramethylpiperidine-1-oxyl (TEMPO-EG1) in a non-aqueous electrolyte (1.5 M LiPF6 in a mixture of ethylene carbonate (EC) and ethyl methyl carbonate (EMC), 3:7 (v/v), respectively) at various scan rates given in mV/s. In FIG. 3, the cyclic voltammograms were measured at various rates with iR-correction applied. A glassy carbon electrode was used as the working electrode, while lithium metal strips were used as the counter and reference electrodes.
as §1, with “FIG. 4” for “FIG. 3”, “mM 4-(1,4,7-trioxaoctyl)-2,2,6,6-tetramethylpiperidine-1-oxyl (TEMPO-EG2)” for “mM 4-(1,4-dioxabutyl)-2,2,6,6-tetramethylpiperidine-1-oxyl (TEMPO-EG1)”, “FIG. 4,” for “FIG. 3,”
as §1, with “FIG. 5” for “FIG. 3”, “mM 4-(1,4,7,10-tetraoxaundecyl)-2,2,6,6-tetramethylpiperidine-1-oxyl (TEMPO-EG3)” for “mM 4-(1,4-dioxabutyl)-2,2,6,6-tetramethylpiperidine-1-oxyl (TEMPO-EG1)”, “FIG. 5,” for “FIG. 3,”

[4] = Cyclic voltammetry in aqueous electrolytes; format: physicochemical; settings: for redox potential: Pt disk working electrode, Pt coil counter
Procedure: Cyclic voltammograms of 10 mM TEMPO-EG3 in an aqueous electrolyte (1 M aqueous sulfuric acid) were measured at various scan rates given in mV/s. A Pt disk was used as the working electrode, while the counter electrode was a Pt coil and the reference electrode was Ag/AgCl.
Cyclic voltammograms of 10 mM TEMPO-EG3 in an aqueous electrolyte (1M aqueous sodium chloride) were measured at various scan rates given in mV/s. A Pt disk was used as the working electrode, while the counter electrode was a Pt coil and the reference electrode was Ag/AgCl.

| viscosity [2] [mPa·s] | redox potential [3] [V vs. Li/Li^+] | redox potential ([4]; 10 mM in 1M aqueous sodium chloride (neutral electrolyte)) | redox potential ([4]; 10 mM in 1 M aqueous sulfuric acid (acidic electrolyte)) | electrochemical reversibility ([4]; cyclic voltammetry in common aqueous electrolytes) | SMILES | solubility [1] [mM] |
| --- | --- | --- | --- | --- | --- | --- |
|  |  |  |  |  | COCCOc1cc(C(C)(C)C)c(OC)cc1C(C)(C)C [DBMMEB, 1,4-di-tert-butyl-2-methoxy-5-(2-rnethoxyethoxy)benzene] | 600 (≈ 177 mg/mL) |
| 10.88 | 3.53 |  |  |  | COCCOCCOC1CC(C)(C)N([O])C(C)(C)C1 [TEMPO-EG2, 4-(3,6-dioxaheptyloxy)-2,2,6,6-tetramethylpiperidine-1-oxyl] |  |
| 21.30 | 3.53 | about 0.59 V vs. Ag/AgCl | about 0.55 V vs. Ag/AgCl | excellent electrochemical reversibility | COCCOCCOCCOC1CC(C)(C)N([O])C(C)(C)C1 [TEMPO-EG3, 4-(3,6,9-trioxadecyloxy)-2,2,6,6-tetramethylpiperidine-1-oxyl] |  |

| SMILES | viscosity [2] [mPa·s] | redox potential [3] [V vs. Li/Li^+] | redox potential ([4]; 10 mM in 1M aqueous sodium chloride (neutral electrolyte)) | redox potential ([4]; 10 mM in 1 M aqueous sulfuric acid (acidic electrolyte)) | electrochemical reversibility ([4]; cyclic voltammetry in common aqueous electrolytes) | solubility [1] [mM] |
| --- | --- | --- | --- | --- | --- | --- |
| COCCOC1CC(C)(C)N([O])C(C)(C)C1 [TEMPO-EG1, 4-(2-methoxyethoxy)-2,2,6,6-tetramethylpiperidine-1-oxyl] | 10.23 | 3.53 |  |  |  |  |
